Data published in US20260137814A1, “FLUORESCENT COMPOUNDS FOR ACCELERATED CANCER THERANOSTIC” (The Hong Kong University of Science and Technology, priority 2022, published 2026).

What was measured:
[1] = Absorption and emission spectra in solution; assay type: physicochemical
Excerpt: Expectedly, the emission spectrum of TBT-2(1P-DPA), and TBT-2(2P-DPA) both ends below 1000 nm, while the emission maximum of TBT-2(TP-DPA) was 1046 nm when upon 808 nm excitation (FIG. 3d). […] The experimental characterization is in consistency with our theoretical hypothesis, which made TBT-2(TP-DPA) ideal candidates as the template of NIR-II theranostic agents.

[2] = Absolute fluorescence quantum yield in the NIR region; assay type: physicochemical; details: in toluene, under 808 nm excitation
Protocol: Under 808 nm excitation, the absolute quantum yield of TBT-2(TP-DPA) in the NIR region was determined to be 10.4% in toluene.

Row | Compound | absorption ended up to ([1]; in THE solution) [nm] | absorption peak ([1]; in THE solution) | emission wavelength extended to [1] [nm] | emission maximum ([1]; upon 808 nm excitation) [nm] | absolute quantum yield in the NIR region [2] [%]
1 | CCCCC(CC)Cn1nc2c(-c3ccc(N(c4ccc(OC)cc4)c4ccc(OC)cc4)cc3)c3c(c(-c4ccc(N(c5ccc(OC)cc5)c5ccc(OC)cc5)cc4)c2n1)N=S=N3 (stereo not drawn) [TBT-2(1P-DPA)] | 800 | 580 nm |  |  | 
2 | CCCCC(CC)Cn1nc2c(-c3ccc(-c4ccc(N(c5ccc(OC)cc5)c5ccc(OC)cc5)cc4)s3)c3c(c(-c4ccc(-c5ccc(N(c6ccc(OC)cc6)c6ccc(OC)cc6)cc5)s4)c2n1)N=S=N3 (stereo not drawn) [TBT-2(TP-DPA)] |  | around 800 nm | ~1500 | 1046 | 10.4
